Results reported in PMC3127977, “No relevant cardiac, pharmacokinetic or safety interactions between roflumilast and inhaled formoterol in healthy subjects: an open-label, randomised, actively controlled study” (BMC Clinical Pharmacology, 2011).

Columns and labels:
[1] = Steady-state plasma pharmacokinetics (HPLC-MS/MS) in healthy men; oral roflumilast 500 μg once daily, inhaled formoterol 24 μg twice daily; conditions: for AUC / Cmax: male, human, plasma, oral; for AUC: AUCτ; for AUC / Cmax / C trough / CL/F: steady state, geometric mean (68% range)
Procedure: For Regimen A, subjects received 500 μg oral roflumilast once daily (daily dose: one tablet of roflumilast 500 μg) from the morning of Day 2 to the morning of Day 18. […] For Regimen B, subjects received 24 μg formoterol for oral inhalation delivered by a DPI device (Foradil® P) twice daily, once in the morning and once in the evening from the morning of Day 2 to the evening of Day 18.
Pre-dose blood samples for determination of trough levels were taken on Days 9 and 10 for Regimen A (morning only), and on Days 6 and 7 (morning and evening) for Regimen B. Blood samples (4.5 mL) were collected in heparinised tubes and plasma was obtained by centrifugation at 1550 g for 15 minutes. Plasma samples were stored at -20°C or below for roflumilast, and at -70°C for formoterol. Plasma concentrations of roflumilast and roflumilast N-oxide were determined using high-performance liquid chromatography coupled with tandem mass spectrometry (HPLC-MS/MS). […] Roflumilast and roflumilast N-oxide standard curves were valid up to 20 ng/mL and 40 ng/mL, respectively. Determination of roflumilast and roflumilast N-oxide was performed at Altana Pharma AG, Konstanz, Germany (Nycomed GmbH). Plasma concentrations of formoterol were determined using HPLC-MS/MS. The LLOQ in plasma was 0.4 pg/mL using a sample volume of 1.0 mL. […] Determination of formoterol was performed at pharm-analyt Labor GmbH, Baden, Austria, under the supervision of Altana Pharma AG(Nycomed GmbH).
For roflumilast, roflumilast N-oxide and formoterol, the maximum plasma concentration (Cmax) was derived directly from the plasma concentrations. The AUC from time zero to the time of the last quantifiable concentration, which corresponded to the dosing interval of each analyte (AUC0-τ), was estimated using the linear trapezoidal method. Apparent clearance at steady state (CL/F; calculated by dose/AUCτ) was reported for roflumilast only. […] The calculation of tPDE4i was based on the equation described in Lahu et al..

[2] = test system: healthy subjects; assay: Digital 12-lead electrocardiography (HR, QT, QTc); type: in vivo, human
Procedure: Digital 12-lead ECGs were recorded immediately after each ZCG recording. Tracings were analysed off-study by regimen-blinded qualified analysts, using previously reported methodology. For each time point, three cycles were measured with regard to the RR, PQ and QT-intervals [ms]. The means of the three measurements were used for the calculation of HR and HR-corrected QTc intervals, according to Bazett's equation (QTcB = QT/RR^1/2) and Fridericia's equation (QTcF = QT/RR^1/3).

[3] = test system: healthy subjects; assay: Adverse event monitoring; type: in vivo, human
Text: Blood and urine samples for conventional clinical laboratory safety tests were obtained at the screening visit, in the morning of each main profiling day, and on Day 19. Adverse events (AEs) were monitored throughout the study.

[4] = cited from earlier work
[5] = parameters: method as in PMID 20690782; conditions: cited from earlier work
[6] = test system: healthy subjects; parameters: method as in earlier work; conditions: cited from earlier work
[7] = Serum glucose concentration on profiling days; conditions: Regimen A, Day 11
Text: (§1) During the main profiling days, blood was sampled at each ZCG time point for the determination of serum glucose and potassium concentrations.

[8] = Serum potassium concentration on profiling days; conditions: Regimen A, Day 11
Text: as §1

[9] = 500 μg, Regimen A Day 11 (roflumilast alone)
[10] = Regimen A Day 18 (roflumilast plus formoterol)
[11] = Regimen B Day 18 (formoterol plus roflumilast)
[12] = Regimen A Day 11 (roflumilast alone)

O=C(Nc1c(Cl)cncc1Cl)c1ccc(OC(F)F)c(OCC2CC2)c1 [Roflumilast, 3-cyclopropylmethoxy-N-(3,5-dichloropyridin-4-yl)-4-(difluoromethoxy)benzamide]
steady-state AUC and Cmax values lower ([1]; Regimen B Day 18 (co-administered with formoterol) compared with Regimen A Day 11 or Day 18): 10-15% | changes in peak concentration and exposure ([1]; concomitant inhaled formoterol compared with roflumilast alone): less than 1% | changes in steady-state pharmacokinetics when the other drug was added ([1]; formoterol added to roflumilast, or roflumilast added to formoterol): no relevant changes | AUC [1, 9]: 35.8 ng·h/mL | Cmax [1, 9]: 6.89 ng/mL | AUC [1, 10]: 36.9 ng·h/mL | AUC [1, 11]: 31.8 ng·h/mL | Cmax [1, 10]: 6.43 ng/mL | Cmax [1, 11]: 5.92 ng/mL | C trough [1, 12]: 0.53 (0.33-0.85) μg/L | CL/F [1, 12]: 13.9 (10.8-17.9) L/h | C trough [1, 10]: 0.50 (0.29-0.86) μg/L | CL/F [1, 10]: 13.5 (10.3-17.7) L/h | C trough [1, 11]: 0.37 (0.18-0.77) μg/L | CL/F [1, 11]: 15.7 (10.4-23.5) L/h | HR (ECG) ([2]; 12-lead ECG): slight increase | QTc values, uncorrected or corrected using Bazett's or Fridericia's formula ([2]; 12-lead ECG): no clinically relevant changes | duration of the QT interval ([2]; 12-lead ECG): decrease | QT/QTc intervals ([2]; all subjects, all regimens): below 450 ms | number of AEs ([3]; Regimen A, Day 2 to Day 11): 17 AEs | subjects who experienced AEs ([3]; Regimen A, Day 2 to Day 11, n = 12): 7 subjects | dizziness reports ([3]; Regimen A, roflumilast alone): four | myalgia reports ([3]; Regimen A, roflumilast alone): four | tremor ([3]; administered alone (Regimens A and B respectively)): not observed | median effective plasma half-life ([4]; repeated dose): 17 h | mean bioavailability ([4]; single oral 500 μg dose, healthy individuals): 79% | dose dependence of pharmacokinetics ([4]; within the 250-1000 μg dose range): dose-proportional | increase in tPDE4i expected in patients with COPD compared with healthy individuals [5]: 12.6% | effect on cardiac repolarisation (QT/QTc interval) [6]: no significant effect | median pre-dose serum glucose [7]: 4.75 mmol/L | median pre-dose serum potassium level [8]: 4.16 mmol/L
